COc1c2occc2c(OC)c2c(=O)cc(C)oc12
solubility (mole fraction)
Conditions | in DMSO | in ethanol | in isopropanol | in methanol | in n-butanol | in water
298.15 K | 0.0128 | 0.00255 | 0.00195 | 0.00271 | 0.00355 | 1.33e-05
303.15 K | 0.0131 | 0.00282 | 0.002 | 0.00272 | 0.00375 | 1.23e-05
308.15 K | 0.0131 | 0.00298 | 0.00209 | 0.003 | 0.00372 | 1.88e-05
313.15 K | 0.0132 | 0.00311 | 0.00228 | 0.00314 | 0.00399 | 1.88e-05
318.15 K | 0.0141 | 0.00338 | 0.00233 | 0.00318 | 0.00435 | 3.69e-05
323.15 K | 0.0152 | 0.00338 | 0.00253 | 0.00332 | 0.00529 | 9.02e-05

Conditions | solubility (mole fraction)
in PEG-200, 298.15 K | 0.00171
in PEG-200, 303.15 K | 0.00149
in PEG-200, 308.15 K | 0.00173
in PEG-200, 313.15 K | 0.00199
in PEG-200, 318.15 K | 0.00202
in PEG-200, 323.15 K | 0.00231
in PEG-400, 298.15 K | 0.00438
in PEG-400, 303.15 K | 0.00425
in PEG-400, 308.15 K | 0.00448
in PEG-400, 313.15 K | 0.00453
in PEG-400, 318.15 K | 0.00448
in PEG-400, 323.15 K | 0.00511

— BigSolDB 2.1
